The assay addresses Envelope glycoprotein gp160 (Human immunodeficiency virus 1, UniProt Q6QLK5). Description: cell-free HIV fusion peptide-binding blockers – biochemical, uHTS, fluorescence dequenching, […] (AID 1986).

Activity calls are given as the source filed them. No stated cut-off is given here; in the data, actives have a measured IC50 and inactives only a lower limit.

Sequence of Envelope glycoprotein gp160 (Q6QLK5 whole entry, the tested form may be a part): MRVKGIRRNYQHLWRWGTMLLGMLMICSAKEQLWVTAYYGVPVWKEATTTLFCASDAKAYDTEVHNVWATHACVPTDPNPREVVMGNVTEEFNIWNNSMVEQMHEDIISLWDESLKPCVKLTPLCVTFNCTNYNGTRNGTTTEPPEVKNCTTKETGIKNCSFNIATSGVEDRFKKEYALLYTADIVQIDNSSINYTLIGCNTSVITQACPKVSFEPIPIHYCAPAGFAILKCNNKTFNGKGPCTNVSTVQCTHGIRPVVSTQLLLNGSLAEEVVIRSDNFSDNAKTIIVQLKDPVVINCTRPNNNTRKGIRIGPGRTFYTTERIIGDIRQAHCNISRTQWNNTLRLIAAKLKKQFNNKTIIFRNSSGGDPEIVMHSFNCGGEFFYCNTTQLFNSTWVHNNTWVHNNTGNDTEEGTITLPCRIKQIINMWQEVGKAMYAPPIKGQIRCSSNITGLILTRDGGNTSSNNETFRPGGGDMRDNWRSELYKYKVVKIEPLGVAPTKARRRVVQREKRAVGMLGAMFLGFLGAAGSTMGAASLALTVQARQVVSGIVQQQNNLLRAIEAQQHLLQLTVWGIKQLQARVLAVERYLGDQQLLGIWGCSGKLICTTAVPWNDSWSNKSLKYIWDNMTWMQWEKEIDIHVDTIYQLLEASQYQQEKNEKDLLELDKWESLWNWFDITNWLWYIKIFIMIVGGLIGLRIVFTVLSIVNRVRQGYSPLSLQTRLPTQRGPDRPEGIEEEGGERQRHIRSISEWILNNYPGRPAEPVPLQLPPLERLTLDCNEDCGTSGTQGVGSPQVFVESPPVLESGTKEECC

In general, IC50 refers to the concentration needed to halve the response being measured. As for `O=C(O)CN1C(=O)/C(=C\c2cc(Br)ccc2OCc2ccccc2F)SC1=S`, the IC50 is 10.9 µM (active).
For the compound `O=C(N/N=C/c1cc(Cl)cc([N+](=O)[O-])c1O)NC12CC3CC(CC(C3)C1)C2`, the IC50 is 23.2 µM (active).

(Values after ChEMBL document CHEMBL1201862, “PubChem BioAssay data set” (2004).)
